Assay results taken from patent US9120839B2, “Ursolic acid derivative and method for preparing same” (Nexoligo Co., Ltd., priority 2012, dated 2015).
Where two headings read alike, the source gives them in different places.

Assays:
[1] = Pharmacokinetic animal test on Sprague Dawley (SD) rat, ursolic acid concentration in blood plasma; assay type: in vivo; details: male, intravenous administration, dose 0.5 (mg/kg per Table 1), SD rats
Method: Pharmacokinetic Animal Test on Sprague Dawley (SD) Rat, Using Ursolic Acid and Ursolic Acid Derivatives of Examples
• Ursolic acid derivative of Examples (5-methyl-2-oxo-1,3-dioxole-4-yl)methyl 3β-hydroxyl-urs-12-en-28-oate was used.
The ursolic acid was single-intravenously administered on SD rats and the ursolic acid derivative of Example 2 was orally administered, then blood collection was performed each time, and concentration of the test substance in blood was analyzed. Accordingly, bioavailability of the ursolic acid and ursolic acid derivatives of Examples were measured and compared with each other.
i) Control substance (Intravenous Administration): Ursolic Acid (UA) (HPLC purity of 99.0% or more/area percentage)
ii) Test substance (Oral Administration) Ursolic acid derivative of Example 2 (HPLC purity of 99.4% or more/area percentage)
The control substance for intravenous administration was diluted with 0.9% saline which was sterilized and sealed to be prepared in 0.5 mg/mL. […]
(3) Calculation of Injection Amount: The injection amount was calculated to be 1.0 or 2.0 mL/kg, on the basis of the recently measured body weight before the administration. […]
Concentration of ursolic acid in the blood plasma of the rats was measured. […]

[2] = background statement on ursolic acid; cited from earlier work
[3] = rats, from Paper 1; cited from earlier work

SMILES	AUC(0-t) [1]	Cmax [1]	oral absorptivity [2]	oral absorptivity [3]
C[C@H]1[C@H](C)CC[C@]2(C(=O)O)CC[C@]3(C)C(=CC[C@@H]4[C@@]5(C)CC[C@H](O)C(C)(C)[C@@H]5CC[C@]43C)[C@H]12 [Ursolic Acid, 3β-hydroxy-urs-12-en-28-oic acid]	114 ng·h/mL	378 ng/mL	less than 1%	
CC1(C)CC[C@]2(C(=O)O)CC[C@]3(C)C(=CC[C@@H]4[C@@]5(C)CC[C@H](O)C(C)(C)[C@@H]5CC[C@]43C)[C@@H]2C1 [oleanolic acid]				about 0.7%
